Results from publication PMC5780493, “Epsin and Sla2 form assemblies through phospholipid interfaces” (Nature Communications, 2018).

Assays:
[1] = biological target: T1, ENTH (epsin ENTH domain, C. thermophilum) (Thermochaetoides thermophila, UniProt G0SAK2); assay: native MS titration, corrected for unspecific binding; conditions: ammonium acetate 300 mM, 1 mM DTT, pH 8.0; 10 uM protein, 60 uM PIP2; two sites, positive cooperativity
T1 construct: ENTH domain; E. coli, N-terminal His6 tag cut with TEV
T1 sequence (G0SAK2 with tags, fused parts or gaps): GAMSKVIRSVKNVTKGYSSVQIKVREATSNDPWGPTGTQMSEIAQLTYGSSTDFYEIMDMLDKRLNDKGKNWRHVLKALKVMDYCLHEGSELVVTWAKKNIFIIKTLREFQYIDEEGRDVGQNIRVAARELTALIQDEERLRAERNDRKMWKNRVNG

[2] = biological target: T2, human epsin-1 ENTH (EPN1) (Homo sapiens, UniProt Q9Y6I3); assay: native MS; SAXS; type: binding; conditions: hexamer formation with PIP2; SAXS in 20 mM Tris-HCl pH 8.0, 250 mM NaCl, 0.2 mM PIP2
T2 construct: ENTH domain aa 1-158, extra Gly after start Met; E. coli His-GST fusion, tag cut with TEV; hexamer with PIP2
T2 sequence (Q9Y6I3 1-158): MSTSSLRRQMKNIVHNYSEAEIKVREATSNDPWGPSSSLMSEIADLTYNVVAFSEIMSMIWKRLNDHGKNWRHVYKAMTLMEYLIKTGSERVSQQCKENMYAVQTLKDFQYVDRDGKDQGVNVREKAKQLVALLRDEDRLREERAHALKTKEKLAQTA

[3] = biological target: T3, ENTH2 (Ent2 ENTH domain, S. cerevisiae) (Saccharomyces cerevisiae, UniProt Q05785); assay: native MS titration, corrected for unspecific binding; conditions: ammonium acetate 300 mM, 1 mM DTT, pH 8.0; 10 uM protein, 60 uM PIP2; two sites, positive cooperativity
T3 construct: ENTH domain (N-terminal); purified recombinant; two domains sandwich one PIP2 in the crystal
T3 sequence (Q05785 1-156): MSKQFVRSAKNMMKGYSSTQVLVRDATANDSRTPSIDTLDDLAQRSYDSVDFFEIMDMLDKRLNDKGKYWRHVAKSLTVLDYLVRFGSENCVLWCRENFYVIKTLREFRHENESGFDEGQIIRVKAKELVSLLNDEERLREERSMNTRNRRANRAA

ANTHSla2 (S. cerevisiae) [4] = biological target: T4, ANTHSla2 (S. cerevisiae) (Saccharomyces cerevisiae, UniProt P33338); assay: as above; conditions: ammonium acetate 300 mM, 1 mM DTT, pH 8.0; 10 uM protein, 60 uM PIP2; two sites, positive cooperativity
T4 construct: gene SLA2; ANTH domain (N-terminal); purified recombinant
T4 sequence (P33338 1-360 limits assumed): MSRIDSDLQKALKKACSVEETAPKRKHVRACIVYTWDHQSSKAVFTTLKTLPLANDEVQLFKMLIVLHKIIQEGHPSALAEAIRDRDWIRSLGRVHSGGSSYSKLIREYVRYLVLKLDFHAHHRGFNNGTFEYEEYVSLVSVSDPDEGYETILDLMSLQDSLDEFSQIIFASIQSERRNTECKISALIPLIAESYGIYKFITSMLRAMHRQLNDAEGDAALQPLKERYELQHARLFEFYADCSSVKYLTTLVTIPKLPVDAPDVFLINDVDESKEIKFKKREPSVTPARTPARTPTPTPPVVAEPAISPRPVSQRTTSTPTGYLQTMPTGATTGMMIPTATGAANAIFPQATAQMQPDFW

CALM ANTH domain = biological target: T5, CALM ANTH domain (Homo sapiens, UniProt Q13492); assay: as above; conditions: ammonium acetate 300 mM, 1 mM DTT, pH 8.0; 10 uM protein, 60 uM PIP2; two sites, not cooperative
T5 construct: gene PICALM; ANTH domain; E. coli, N-terminal His6 tag cut with TEV
T5 sequence (Q13492 1-289 limits assumed): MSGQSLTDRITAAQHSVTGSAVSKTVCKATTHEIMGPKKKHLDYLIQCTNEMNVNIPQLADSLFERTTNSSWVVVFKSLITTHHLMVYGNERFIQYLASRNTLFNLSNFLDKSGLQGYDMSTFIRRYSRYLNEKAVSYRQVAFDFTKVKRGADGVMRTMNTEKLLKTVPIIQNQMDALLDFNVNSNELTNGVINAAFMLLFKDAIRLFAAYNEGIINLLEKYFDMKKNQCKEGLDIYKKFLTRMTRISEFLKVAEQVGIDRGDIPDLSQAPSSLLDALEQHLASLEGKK

[5] = biological target: T6, ENTH1 (Ent1 ENTH domain, S. cerevisiae) (Saccharomyces cerevisiae, UniProt Q12518); assay: as above; conditions: ammonium acetate 300 mM, 1 mM DTT, pH 8.0; 10 uM protein, 60 uM PIP2; two sites, positive cooperativity
T6 construct: ENTH domain (N-terminal); purified recombinant
T6 sequence (Q12518 1-154): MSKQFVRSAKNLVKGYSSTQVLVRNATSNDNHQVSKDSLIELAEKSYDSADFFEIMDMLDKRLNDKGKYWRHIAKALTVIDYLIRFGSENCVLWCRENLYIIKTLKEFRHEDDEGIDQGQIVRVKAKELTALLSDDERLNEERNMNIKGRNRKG

[6] = biological target: T7, ENTH1 (Ent1 ENTH domain, S. cerevisiae) (Saccharomyces cerevisiae, UniProt Q12518, T104E); assay: native MS; type: binding; conditions: ammonium acetate, 1 mM DTT, pH 8.0; 10 uM protein, 60 uM PIP2
T7 construct: ENTH domain (N-terminal); purified recombinant
T7 sequence (Q12518 1-154 T104E): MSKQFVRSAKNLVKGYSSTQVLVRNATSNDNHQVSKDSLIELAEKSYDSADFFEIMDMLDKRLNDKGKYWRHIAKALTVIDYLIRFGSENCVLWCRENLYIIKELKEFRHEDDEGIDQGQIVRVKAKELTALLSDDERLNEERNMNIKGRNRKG

[7] = biological target: T8, ANTHSla2 (C. thermophilum), ANTHCh (Thermochaetoides thermophila, UniProt G0S106); assay: native MS titration, corrected for unspecific binding; conditions: ammonium acetate 300 mM, 1 mM DTT, pH 8.0; 10 uM protein, 60 uM PIP2; two sites
T8 construct: gene CTHT_0011900; ANTH domain; E. coli, N-terminal His6 tag cut with TEV

[8] = biological target: T3, ENTH2 (Ent2 ENTH domain, S. cerevisiae); assay: X-ray crystal structure, […] A; type: binding; conditions: 0.1 M MES pH 6.5, 1.45 M ammonium sulfate; canonical phosphoinositide pocket, dimer interface
ANTHSla2 (S. cerevisiae) [9] = biological target: T4, ANTHSla2 (S. cerevisiae); assay: native MS titration, corrected for unspecific binding; conditions: ammonium acetate 300 mM, 1 mM DTT, pH 8.0; 10 uM protein, 60 uM PIP2; second site (canonical site removed)
[10] = biological target: T9, human epsin-1 ENTH/Hip1R ANTH complex (Homo sapiens, UniProt O75146+Q9Y6I3); assay: native MS of assembled complex; type: binding; conditions: ammonium acetate 300 mM, 1 mM DTT, pH 8.0; 10 uM ENTH, 10 uM ANTH, 60 uM PIP2; stoichiometry
T9 construct: gene EPN1; EPN1 aa 1-158 (extra Gly after Met) and Hip1R aa 1-300; His-GST tags cut with TEV; 6:0 to 8:8, mainly 6:6
T9 sequence (Q9Y6I3 1-158): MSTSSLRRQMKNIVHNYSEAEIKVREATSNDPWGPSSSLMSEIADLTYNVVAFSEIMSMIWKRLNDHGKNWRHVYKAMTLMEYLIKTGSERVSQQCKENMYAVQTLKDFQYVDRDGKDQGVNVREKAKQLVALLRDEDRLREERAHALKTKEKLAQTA
T9 sequence (O75146 1-300): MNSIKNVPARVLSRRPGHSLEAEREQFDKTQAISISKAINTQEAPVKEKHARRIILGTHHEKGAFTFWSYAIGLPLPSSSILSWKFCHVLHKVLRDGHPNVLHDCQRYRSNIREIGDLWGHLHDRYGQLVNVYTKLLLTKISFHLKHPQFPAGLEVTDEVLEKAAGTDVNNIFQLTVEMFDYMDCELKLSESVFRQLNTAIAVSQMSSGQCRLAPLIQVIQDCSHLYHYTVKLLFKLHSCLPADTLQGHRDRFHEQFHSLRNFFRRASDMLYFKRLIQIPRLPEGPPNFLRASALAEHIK

Epsin (Ent1) ENTH = biological target: T10, Epsin (Ent1) ENTH (Saccharomyces cerevisiae, UniProt Q12518); assay: ITC
T10 chain: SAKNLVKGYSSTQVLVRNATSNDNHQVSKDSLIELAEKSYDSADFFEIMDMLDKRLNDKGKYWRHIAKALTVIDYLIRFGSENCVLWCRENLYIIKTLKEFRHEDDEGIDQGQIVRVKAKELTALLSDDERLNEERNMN

T8 sequence (G0S106 entry or part of it): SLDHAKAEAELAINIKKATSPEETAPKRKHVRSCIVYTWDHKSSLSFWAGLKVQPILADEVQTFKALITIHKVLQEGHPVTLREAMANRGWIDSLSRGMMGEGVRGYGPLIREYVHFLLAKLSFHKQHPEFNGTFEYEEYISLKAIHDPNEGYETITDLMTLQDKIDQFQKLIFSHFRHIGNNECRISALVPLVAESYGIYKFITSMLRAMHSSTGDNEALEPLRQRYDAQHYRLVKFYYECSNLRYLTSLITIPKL

Row | Molecule | KD,1 / KD,2 (macroscopic) [1] | native MS; SAXS [2] | KD,1 / KD,2 (macroscopic) [3] | KD,1 / KD,2 (macroscopic) (ANTHSla2 (S. cerevisiae) [4]) | KD,1 / KD,2 (macroscopic) (CALM ANTH domain) | KD,1 / KD,2 (macroscopic) [5] | native MS [6] | KD,1 / KD,2 (macroscopic) [7] | X-ray crystal structure, 3.35 A [8] | dissociation constant (ANTHSla2 (S. cerevisiae) [9]) [µM] | native MS of assembled complex [10] | Kd (Epsin (Ent1) ENTH) [µM]
1 | CCCCCCCC(=O)OC[C@H](COP(=O)(O)O[C@@H]1[C@H](O)[C@H](O)[C@@H](OP(=O)(O)O)[C@H](OP(=O)(O)O)[C@H]1O)OC(=O)CCCCCCC [PIP2] | homologous epsin from C. thermophilum bind up to two PIP2 molecules per domain | A minimum of six PIP2 molecules is required for human ENTH hexamer formation | ENTH1 and ENTH2) from S. cerevisiae | PIP2 dissociation constants are higher for Sla2 ANTH domains than for ENTH domains | macroscopic dissociation constants for CALM suggest higher affinity for the first PIP2-binding site | ENTH1 and ENTH2) from S. cerevisiae | Thr104Glu mutant of ENTH1 from S. cerevisiae shows a reduction of PIP2 binding | several ANTH domains, showing two PIP2 binding sites for all wild-type proteins | The structure shows two ENTH2 domains sandwiched around one PIP2 molecule | 300 ± 70 | human epsin-1 ENTH domain with human Hip1R ANTH domain and PIP2 | 
2 | Sla2 ANTH (protein, PIP2) MSRIDSDLQKALKKACSVEETAPKRKHVRACIVYTWDHQSSKAVFTTLKTLPLANDEVQLFKMLIVLHKIIQEGHPSALAEAIRDRDWIRSLGRVHSGGSSYSKLIREYVRYLVLKLDFHAHHRGFNNGTFEYEEYVSLVSVSDPDEGYETILDLMSLQDSLDEFSQIIFASIQSERRNTECKISALIPLIAESYGIYKFITSMLRAMHRQLNDAEGDAALQPLKERYELQHARLFEFYADCSSVKYLTTLVTIPKLPVDAPDVFLINDVDESKEIKFKKREPSVT |  |  |  |  |  |  |  |  |  |  |  | 0.45
